Results published in ChEMBL document CHEMBL1201862, “PubChem BioAssay data set” (2004).
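A five-concentration, 48-hour dose response in 96-well plates underlies each endpoint, interpolated linearly between surrounding concentrations. The concentration for 50% growth inhibition is given as GI50.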 Activity calls are given as the source filed them. Rule as the data show it: active = GI50 up to about 1.1 µM and inactive = higher.

What was measured:
Test in all cases: NCI-60 cell line screen, 48 h
[1] = test system: NCI/ADR-RES
[2] = test system: NCI-H522
[3] = test system: SN12C
[4] = test system: HCT-15
[5] = test system: OVCAR-8
[6] = test system: BT-549
[7] = test system: SK-MEL-5
[8] = test system: K562
[9] = test system: SF-268
[10] = test system: A549
[11] = test system: T47D
[12] = test system: TK-10
[13] = test system: SK-MEL-2
[14] = test system: HOP-92
[15] = test system: MDA-MB-435
[16] = test system: SW-620
[17] = test system: IGROV-1
[18] = test system: MOLT-4
[19] = test system: CCRF-CEM

SMILES	GI50 [1]	GI50 [2]	GI50 [3]	GI50 [4]	GI50 [5]	GI50 [6]	GI50 [7]	GI50 [8]	GI50 [9]	GI50 [10]	GI50 [11]	GI50 [12]	GI50 [13]	GI50 [14]	GI50 [15]	GI50 [16]	GI50 [17]	GI50 [18]	GI50 [19]
COc1ccc(OC)c(-c2cc(C(=O)O)c3cc4ccccc4cc3n2)c1	> 100 µM (inactive)	> 100 µM (inactive)	> 100 µM (inactive)	> 100 µM	> 100 µM (inactive)	> 100 µM (inactive)	> 100 µM (inactive)	> 100 µM (inactive)	> 100 µM (inactive)	> 100 µM (inactive)	> 100 µM (inactive)	> 100 µM (inactive)	> 100 µM (inactive)	> 100 µM (inactive)	> 100 µM (inactive)	> 100 µM (inactive)	> 100 µM (inactive)	> 100 µM (inactive)	–
Brc1ccc2c(-c3csc(-c4c[nH]c5ccccc45)n3)c[nH]c2c1	16.8 µM (inactive)	17.3 µM (inactive)	17.3 µM (inactive)	–	18.2 µM (inactive)	18.3 µM (inactive)	15.3 µM (inactive)	–	18.3 µM (inactive)	15.8 µM (inactive)	24.8 µM (inactive)	12.4 µM (inactive)	–	15.6 µM (inactive)	14.9 µM (inactive)	16.5 µM (inactive)	13 µM (inactive)	–	14.7 µM (inactive)
CCSc1n/c(=C\c2ccc(N(C)C)cc2)c2nnnn12	> 100 µM (inactive)	> 100 µM (inactive)	> 100 µM (inactive)	> 100 µM	> 100 µM (inactive)	> 100 µM (inactive)	> 100 µM (inactive)	–	> 100 µM (inactive)	> 100 µM (inactive)	> 100 µM (inactive)	> 100 µM (inactive)	> 100 µM (inactive)	> 100 µM (inactive)	> 100 µM (inactive)	> 100 µM (inactive)	> 100 µM (inactive)	> 100 µM (inactive)	> 100 µM (inactive)
CCCNC(=O)Cn1c(-c2ccccc2)cc2ccccc21	42.4 µM (inactive)	23.7 µM (inactive)	> 100 µM (inactive)	75 µM	> 100 µM (inactive)	> 100 µM (inactive)	30.5 µM (inactive)	> 100 µM (inactive)	92 µM (inactive)	67.1 µM (inactive)	24.2 µM (inactive)	43.1 µM (inactive)	69.8 µM (inactive)	–	77.3 µM (inactive)	> 100 µM (inactive)	43.9 µM (inactive)	85.1 µM (inactive)	> 100 µM (inactive)
Cc1ccc2nc(-c3nccn3C)cc(C(=O)NC(C)CN(C)C)c2c1 (stereo unspecified)	> 100 µM (inactive)	–	> 100 µM (inactive)	55.1 µM	> 100 µM (inactive)	> 100 µM (inactive)	97.9 µM (inactive)	–	> 100 µM (inactive)	89.9 µM (inactive)	> 100 µM (inactive)	> 100 µM (inactive)	> 100 µM (inactive)	46.3 µM (inactive)	> 100 µM (inactive)	> 100 µM (inactive)	> 100 µM (inactive)	> 10 µM (inactive)	–
CC1C(c2ccccc2)NC(c2ccccc2)CC1(N)C#N (stereo unspecified)	> 100 µM (inactive)	> 100 µM (inactive)	> 100 µM (inactive)	> 100 µM	> 100 µM (inactive)	> 100 µM (inactive)	> 100 µM (inactive)	> 100 µM (inactive)	> 100 µM (inactive)	> 100 µM (inactive)	> 100 µM (inactive)	> 100 µM (inactive)	–	95.1 µM (inactive)	> 100 µM (inactive)	> 100 µM (inactive)	> 100 µM (inactive)	> 100 µM (inactive)	> 100 µM (inactive)
COC(=O)c1cc(C#N)[nH]c1-c1cccs1	33.7 µM (inactive)	33.9 µM (inactive)	> 100 µM (inactive)	57.4 µM	> 100 µM (inactive)	31.8 µM (inactive)	–	> 100 µM (inactive)	> 100 µM (inactive)	> 100 µM (inactive)	24.4 µM (inactive)	–	–	30.8 µM (inactive)	> 100 µM (inactive)	> 100 µM (inactive)	–	> 100 µM (inactive)	48.6 µM (inactive)
C[C@H]1CC[C@H]([C@@H](C)[C@H]2[C@@H](O)C[C@H]3[C@@H]4CC[C@H]5C[C@@H](O)CC[C@]5(C)[C@H]4CC[C@]23C)NC1	14.7 µM (inactive)	15.8 µM (inactive)	16.3 µM (inactive)	17 µM	15 µM (inactive)	17.5 µM (inactive)	21.3 µM (inactive)	–	23.1 µM (inactive)	17 µM (inactive)	12.6 µM (inactive)	18.3 µM (inactive)	19.6 µM (inactive)	14.5 µM (inactive)	16.7 µM (inactive)	18.7 µM (inactive)	19.2 µM (inactive)	9.66 µM (inactive)	5.53 µM (inactive)
